Columns and labels:
Assay in all cases: biochemical
Assay type in all cases: binding
[1] = biological target: 468 kinases including some pathogenic mutants (Homo sapiens, UniProt P51957); conditions: NEK4 (Entrez NEK4), 1000 nM; read-out: Percent Control
[2] = biological target: 468 kinases including some pathogenic mutants (Homo sapiens, UniProt Q2M2I8); conditions: AAK1 (Entrez AAK1), 100 nM; read-out: Percent Control
[3] = biological target: 468 kinases including some pathogenic mutants (Homo sapiens, UniProt O95382); conditions: ASK2 (Entrez MAP3K6), 100 nM; read-out: Percent Control
[4] = biological target: 468 kinases including some pathogenic mutants (Homo sapiens, UniProt P0C1S8); conditions: WEE2 (Entrez WEE2), 100 nM; read-out: Percent Control
[5] = biological target: 468 kinases including some pathogenic mutants (Homo sapiens, UniProt P07333); conditions: CSF1R-autoinhibited (Entrez CSF1R), 100 nM; read-out: Percent Control
[6] = biological target: 468 kinases including some pathogenic mutants (Homo sapiens, UniProt P36894); conditions: BMPR1A (Entrez BMPR1A), 100 nM; read-out: Percent Control
[7] = biological target: 468 kinases including some pathogenic mutants (Homo sapiens, UniProt P19525); conditions: PRKR (Entrez EIF2AK2), 1000 nM; read-out: Percent Control
[8] = biological target: 468 kinases including some pathogenic mutants (Homo sapiens, UniProt Q9UQB9); conditions: AURKC (Entrez AURKC), 100 nM; read-out: Percent Control
Sequence of 468 kinases including some pathogenic mutants (Homo sapiens, UniProt Q9UQB9) (Q9UQB9 whole entry, change not shown): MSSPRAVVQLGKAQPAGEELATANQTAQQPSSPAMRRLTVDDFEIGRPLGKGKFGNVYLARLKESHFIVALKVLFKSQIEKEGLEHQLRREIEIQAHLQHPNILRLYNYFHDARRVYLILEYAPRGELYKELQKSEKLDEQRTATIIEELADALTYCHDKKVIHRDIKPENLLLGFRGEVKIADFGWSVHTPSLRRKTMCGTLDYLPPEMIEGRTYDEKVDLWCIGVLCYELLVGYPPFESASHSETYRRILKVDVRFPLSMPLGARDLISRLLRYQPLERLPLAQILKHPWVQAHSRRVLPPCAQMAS

[9] = biological target: 468 kinases including some pathogenic mutants (Homo sapiens, UniProt P42679); conditions: CTK (Entrez MATK), 100 nM; read-out: Percent Control
Sequence of 468 kinases including some pathogenic mutants (Homo sapiens, UniProt P42679) (P42679 whole entry, change not shown): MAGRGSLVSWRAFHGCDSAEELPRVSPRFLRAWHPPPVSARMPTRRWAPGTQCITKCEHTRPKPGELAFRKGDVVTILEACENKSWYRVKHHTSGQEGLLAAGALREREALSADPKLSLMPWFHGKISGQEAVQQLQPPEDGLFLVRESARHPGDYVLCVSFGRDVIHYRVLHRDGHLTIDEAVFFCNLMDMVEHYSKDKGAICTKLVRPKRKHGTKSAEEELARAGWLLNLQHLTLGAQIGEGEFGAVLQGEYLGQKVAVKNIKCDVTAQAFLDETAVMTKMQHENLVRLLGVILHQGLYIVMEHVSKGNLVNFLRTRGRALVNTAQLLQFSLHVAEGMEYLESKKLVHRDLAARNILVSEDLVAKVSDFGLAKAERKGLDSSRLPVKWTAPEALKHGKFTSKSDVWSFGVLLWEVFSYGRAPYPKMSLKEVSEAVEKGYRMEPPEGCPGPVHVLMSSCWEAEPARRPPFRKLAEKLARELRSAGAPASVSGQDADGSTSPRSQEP

[10] = biological target: 468 kinases including some pathogenic mutants (Homo sapiens, UniProt P43403); conditions: ZAP70 (Entrez ZAP70), 1000 nM; read-out: Percent Control
[11] = biological target: 468 kinases including some pathogenic mutants (Homo sapiens, UniProt Q99558); conditions: NIK (Entrez MAP3K14), 1000 nM; read-out: Percent Control
[12] = biological target: 468 kinases including some pathogenic mutants (Homo sapiens, UniProt Q13627); conditions: DYRK1A (Entrez DYRK1A), 100 nM; read-out: Percent Control
[13] = biological target: 468 kinases including some pathogenic mutants (Homo sapiens, UniProt Q00537); conditions: PCTK2 (Entrez CDK17), 100 nM; read-out: Percent Control
Sequence of 468 kinases including some pathogenic mutants (Homo sapiens, UniProt Q00537) (Q00537 whole entry, change not shown): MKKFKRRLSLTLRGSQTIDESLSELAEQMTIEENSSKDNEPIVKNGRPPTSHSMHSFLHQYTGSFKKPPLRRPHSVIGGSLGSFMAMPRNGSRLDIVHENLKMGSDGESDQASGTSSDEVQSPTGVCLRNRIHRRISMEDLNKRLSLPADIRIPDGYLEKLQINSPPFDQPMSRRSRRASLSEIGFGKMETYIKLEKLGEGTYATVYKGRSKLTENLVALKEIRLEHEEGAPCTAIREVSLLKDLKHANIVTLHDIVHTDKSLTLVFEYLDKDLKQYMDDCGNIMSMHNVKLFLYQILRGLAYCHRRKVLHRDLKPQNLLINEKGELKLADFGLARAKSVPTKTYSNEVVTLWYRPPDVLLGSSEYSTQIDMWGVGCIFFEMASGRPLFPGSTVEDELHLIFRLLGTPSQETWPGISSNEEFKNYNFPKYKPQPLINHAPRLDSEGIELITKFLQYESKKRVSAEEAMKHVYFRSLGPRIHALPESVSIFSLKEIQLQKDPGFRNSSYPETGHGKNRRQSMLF

[14] = biological target: 468 kinases including some pathogenic mutants (Homo sapiens, UniProt O96013); conditions: PAK4 (Entrez PAK4), 100 nM; read-out: Percent Control
[15] = biological target: 468 kinases including some pathogenic mutants (Homo sapiens, UniProt Q8TDX7); conditions: NEK7 (Entrez NEK7), 100 nM; read-out: Percent Control
[16] = biological target: 468 kinases including some pathogenic mutants (Homo sapiens, UniProt Q9UM73, L1196M); conditions: read-out: Percent Control
[17] = biological target: 468 kinases including some pathogenic mutants (Homo sapiens, UniProt O00750); conditions: PIK3C2B (Entrez PIK3C2B), 1000 nM; read-out: Percent Control
[18] = biological target: 468 kinases including some pathogenic mutants (Homo sapiens, UniProt Q9HCP0); conditions: CSNK1G1 (Entrez CSNK1G1), 100 nM; read-out: Percent Control
[19] = biological target: 468 kinases including some pathogenic mutants (Homo sapiens, UniProt P30291); conditions: WEE1 (Entrez WEE1), 100 nM; read-out: Percent Control
[20] = biological target: 468 kinases including some pathogenic mutants (Homo sapiens, UniProt P07949, M918T); conditions: read-out: Percent Control
Sequence of 468 kinases including some pathogenic mutants (Homo sapiens, UniProt P07949, M918T) (P07949 29-1114 M918T): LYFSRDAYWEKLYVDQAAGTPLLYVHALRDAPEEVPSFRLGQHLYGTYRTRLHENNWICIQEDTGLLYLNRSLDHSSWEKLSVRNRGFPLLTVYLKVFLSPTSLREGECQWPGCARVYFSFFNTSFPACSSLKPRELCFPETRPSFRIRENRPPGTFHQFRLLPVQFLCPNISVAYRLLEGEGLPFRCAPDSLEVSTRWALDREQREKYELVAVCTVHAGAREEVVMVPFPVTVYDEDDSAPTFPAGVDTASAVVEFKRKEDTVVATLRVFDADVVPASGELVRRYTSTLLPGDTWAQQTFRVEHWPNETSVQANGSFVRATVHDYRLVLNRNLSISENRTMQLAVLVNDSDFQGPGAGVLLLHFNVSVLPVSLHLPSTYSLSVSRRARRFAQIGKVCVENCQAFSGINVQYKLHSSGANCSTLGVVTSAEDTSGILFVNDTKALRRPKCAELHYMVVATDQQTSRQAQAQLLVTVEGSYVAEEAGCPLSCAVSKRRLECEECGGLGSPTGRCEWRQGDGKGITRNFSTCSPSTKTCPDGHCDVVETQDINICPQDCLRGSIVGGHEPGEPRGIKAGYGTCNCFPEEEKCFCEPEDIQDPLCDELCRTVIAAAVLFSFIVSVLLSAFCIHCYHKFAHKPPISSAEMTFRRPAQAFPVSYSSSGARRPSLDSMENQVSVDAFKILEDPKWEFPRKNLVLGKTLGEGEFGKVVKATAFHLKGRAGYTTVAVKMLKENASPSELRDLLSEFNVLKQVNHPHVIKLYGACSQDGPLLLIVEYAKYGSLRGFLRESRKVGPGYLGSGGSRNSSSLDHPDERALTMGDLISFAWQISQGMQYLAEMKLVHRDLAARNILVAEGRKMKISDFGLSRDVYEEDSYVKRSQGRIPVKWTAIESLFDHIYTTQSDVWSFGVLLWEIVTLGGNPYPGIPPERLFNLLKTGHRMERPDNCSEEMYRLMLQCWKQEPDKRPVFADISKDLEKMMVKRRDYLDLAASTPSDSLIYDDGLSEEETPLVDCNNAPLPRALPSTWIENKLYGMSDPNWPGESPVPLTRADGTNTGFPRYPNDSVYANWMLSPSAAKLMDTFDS

[21] = biological target: 468 kinases including some pathogenic mutants (Homo sapiens, UniProt P53779); conditions: JNK3 (Entrez MAPK10), 100 nM; read-out: Percent Control
[22] = biological target: 468 kinases including some pathogenic mutants (Homo sapiens, UniProt P36507); conditions: MEK2 (Entrez MAP2K2), 1000 nM; read-out: Percent Control
Sequence of 468 kinases including some pathogenic mutants (Homo sapiens, UniProt P36507) (P36507 whole entry, change not shown): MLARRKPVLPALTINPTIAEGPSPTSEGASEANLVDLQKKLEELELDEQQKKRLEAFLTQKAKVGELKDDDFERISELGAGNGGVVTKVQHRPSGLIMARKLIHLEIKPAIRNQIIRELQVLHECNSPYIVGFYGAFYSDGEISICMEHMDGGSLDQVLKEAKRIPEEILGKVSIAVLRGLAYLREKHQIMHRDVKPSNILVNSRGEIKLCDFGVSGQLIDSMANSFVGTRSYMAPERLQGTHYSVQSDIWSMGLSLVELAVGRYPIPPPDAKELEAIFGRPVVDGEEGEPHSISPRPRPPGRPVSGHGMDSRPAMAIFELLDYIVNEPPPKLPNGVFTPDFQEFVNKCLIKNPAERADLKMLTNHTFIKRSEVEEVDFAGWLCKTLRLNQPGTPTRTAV

[23] = biological target: 468 kinases including some pathogenic mutants (Homo sapiens, UniProt Q8N4C8); conditions: MINK (Entrez MINK1), 100 nM; read-out: Percent Control
Sequence of 468 kinases including some pathogenic mutants (Homo sapiens, UniProt Q8N4C8) (Q8N4C8 whole entry, change not shown): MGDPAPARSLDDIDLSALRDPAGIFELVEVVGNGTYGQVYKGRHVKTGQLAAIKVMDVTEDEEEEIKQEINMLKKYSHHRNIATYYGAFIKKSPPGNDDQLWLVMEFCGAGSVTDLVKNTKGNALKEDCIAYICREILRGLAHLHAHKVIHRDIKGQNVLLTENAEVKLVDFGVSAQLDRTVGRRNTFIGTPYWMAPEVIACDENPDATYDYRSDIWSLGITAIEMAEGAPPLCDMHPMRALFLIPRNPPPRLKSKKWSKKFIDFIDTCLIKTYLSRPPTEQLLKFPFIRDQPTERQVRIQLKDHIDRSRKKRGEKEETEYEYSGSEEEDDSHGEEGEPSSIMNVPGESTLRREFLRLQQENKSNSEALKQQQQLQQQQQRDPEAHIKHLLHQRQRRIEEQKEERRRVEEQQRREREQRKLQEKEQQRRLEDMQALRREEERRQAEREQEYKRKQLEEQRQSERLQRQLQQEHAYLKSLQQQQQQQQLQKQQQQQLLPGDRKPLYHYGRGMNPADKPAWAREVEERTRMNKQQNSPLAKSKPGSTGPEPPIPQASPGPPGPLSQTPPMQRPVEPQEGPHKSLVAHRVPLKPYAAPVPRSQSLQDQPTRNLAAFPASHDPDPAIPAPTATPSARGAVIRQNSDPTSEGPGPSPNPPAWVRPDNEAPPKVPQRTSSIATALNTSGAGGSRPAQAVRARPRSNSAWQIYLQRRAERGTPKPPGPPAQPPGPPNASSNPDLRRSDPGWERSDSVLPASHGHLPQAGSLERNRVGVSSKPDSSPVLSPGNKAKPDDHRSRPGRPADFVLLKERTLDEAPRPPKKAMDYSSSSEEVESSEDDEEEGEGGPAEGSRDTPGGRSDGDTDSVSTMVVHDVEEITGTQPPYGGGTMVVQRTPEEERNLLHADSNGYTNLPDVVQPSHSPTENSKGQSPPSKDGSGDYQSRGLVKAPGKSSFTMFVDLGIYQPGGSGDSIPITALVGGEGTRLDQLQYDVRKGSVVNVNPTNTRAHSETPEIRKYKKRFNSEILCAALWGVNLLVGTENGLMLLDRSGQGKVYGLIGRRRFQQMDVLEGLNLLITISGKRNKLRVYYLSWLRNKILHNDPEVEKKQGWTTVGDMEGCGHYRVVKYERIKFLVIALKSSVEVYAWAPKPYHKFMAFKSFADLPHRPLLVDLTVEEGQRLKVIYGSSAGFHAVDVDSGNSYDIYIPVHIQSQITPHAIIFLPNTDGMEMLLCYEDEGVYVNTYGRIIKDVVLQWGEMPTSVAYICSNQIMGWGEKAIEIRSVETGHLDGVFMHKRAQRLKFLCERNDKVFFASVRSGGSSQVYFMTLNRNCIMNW

[24] = biological target: 468 kinases including some pathogenic mutants (Homo sapiens, UniProt P78362); conditions: SRPK2 (Entrez SRPK2), 1000 nM; read-out: Percent Control
[25] = biological target: 468 kinases including some pathogenic mutants (Homo sapiens, UniProt Q13976); conditions: PRKG1 (Entrez PRKG1), 100 nM; read-out: Percent Control
[26] = biological target: 468 kinases including some pathogenic mutants (Homo sapiens, UniProt Q8NFD2); conditions: ANKK1 (Entrez ANKK1), 100 nM; read-out: Percent Control
Sequence of 468 kinases including some pathogenic mutants (Homo sapiens, UniProt Q8NFD2) (Q8NFD2 whole entry, change not shown): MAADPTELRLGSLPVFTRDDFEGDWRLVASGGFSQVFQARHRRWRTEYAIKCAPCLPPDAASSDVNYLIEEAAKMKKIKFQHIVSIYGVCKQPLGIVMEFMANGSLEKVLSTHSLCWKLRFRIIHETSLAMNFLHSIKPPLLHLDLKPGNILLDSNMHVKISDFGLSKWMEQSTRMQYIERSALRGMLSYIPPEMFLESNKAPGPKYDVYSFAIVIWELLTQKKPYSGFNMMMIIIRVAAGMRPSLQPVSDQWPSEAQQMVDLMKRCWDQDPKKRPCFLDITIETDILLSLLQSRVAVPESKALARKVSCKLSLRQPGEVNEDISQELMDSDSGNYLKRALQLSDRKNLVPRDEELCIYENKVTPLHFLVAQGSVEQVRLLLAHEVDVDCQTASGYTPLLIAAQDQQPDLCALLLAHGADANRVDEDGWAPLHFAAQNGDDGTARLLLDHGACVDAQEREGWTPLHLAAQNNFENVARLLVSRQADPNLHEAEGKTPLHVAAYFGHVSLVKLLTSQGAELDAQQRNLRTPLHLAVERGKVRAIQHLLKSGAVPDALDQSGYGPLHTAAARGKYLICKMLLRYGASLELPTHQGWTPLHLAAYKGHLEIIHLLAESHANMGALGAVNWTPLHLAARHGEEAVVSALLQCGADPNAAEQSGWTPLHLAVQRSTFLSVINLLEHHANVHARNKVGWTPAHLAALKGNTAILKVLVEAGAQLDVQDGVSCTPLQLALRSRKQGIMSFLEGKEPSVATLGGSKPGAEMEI

[27] = biological target: 468 kinases including some pathogenic mutants (Homo sapiens, UniProt Q16832); conditions: DDR2 (Entrez DDR2), 100 nM; read-out: Percent Control
[28] = biological target: 468 kinases including some pathogenic mutants (Homo sapiens, UniProt O94804); conditions: LOK (Entrez STK10), 100 nM; read-out: Percent Control

CN1C(=O)[C@@H](N2CCc3c(nn(Cc4ccccc4)c3C(N)=O)C2=O)COc2cc(Cl)ccc21 [Compound 10, (S)-2-benzyl-6-(8-chloro-5-methyl-4-oxo-2,3,4,5-tetrahydrobenzo[b][1,4]oxazepin-3-yl)-7-oxo-4,5,6,7-tetrahydro-2H-pyrazolo[3,4-c]pyridine-3-carboxamide]
remaining activity at 1 µM [1]: 100%
remaining activity at 0.1 µM [2]: 72%
remaining activity at 0.1 µM [3]: 76%
remaining activity at 0.1 µM [4]: 77%
remaining activity at 0.1 µM [5]: 80%
remaining activity at 0.1 µM [6]: 78%
remaining activity at 1 µM [7]: 100%
remaining activity at 0.1 µM [8]: 67%
remaining activity at 0.1 µM [9]: 100%
remaining activity at 1 µM [10]: 100%
remaining activity at 1 µM [11]: 100%
remaining activity at 0.1 µM [12]: 89%
remaining activity at 0.1 µM [13]: 83%
remaining activity at 0.1 µM [14]: 100%
remaining activity at 0.1 µM [15]: 77%
remaining activity at 0.1 µM [16]: 89%
remaining activity at 1 µM [17]: 100%
remaining activity at 0.1 µM [18]: 80%
remaining activity at 0.1 µM [19]: 92%
remaining activity at 0.1 µM [20]: 82%
remaining activity at 0.1 µM [21]: 77%
remaining activity at 1 µM [22]: 100%
remaining activity at 0.1 µM [23]: 94%
remaining activity at 1 µM [24]: 100%
remaining activity at 0.1 µM [25]: 78%
remaining activity at 0.1 µM [26]: 77%
remaining activity at 0.1 µM [27]: 84%
remaining activity at 0.1 µM [28]: 57%

— publication PMC12090182, “Repurposing of the RIPK1-Selective Benzo[1,4]oxazepin-4-one Scaffold for the Development of a Type III LIMK1/2 Inhibitor” (ACS Chemical Biology, 2025)
